Source: patent publication US20140271634A1, “COMBINATIONS OF A MEK INHIBITOR COMPOUND WITH AN HER3/EGFR INHIBITOR COMPOUND AND METHODS OF USE” (The Regents of the University of California, priority 2013, published 2014)
Where two headings read alike, the source gives them in different places.

Experiments:
[1] = system: tumor cells bearing activating Ras mutations; assay: Growth of tumor cells bearing activating Ras mutations; assay type: cell-based; conditions: FIG. 6
Source text: (§1) In one embodiment, the MEK inhibitor of the combination therapy is either GDC-0973 or GDC-0623. […] FIG. 5. […] FIG. 6.

A375 (BRAF^V600E) = assay: Proliferation, A375 cells; assay type: cell-based
HCT115 (KRAS^G13D) = assay: Proliferation, HCT115 cells; assay type: cell-based
[2] = system: KRAS-Mutant DLD-1 Colorectal Adenocarcinoma Tumor Xenografts; assay: DLD-1 colorectal xenograft combination study (Example 7); assay type: in vivo, mice
Experimental: (§2) A combination study of MEHD7945A and cobimetinib was conducted in the KRAS-mutant colorectal xenograft models LS180 and DLD-1. Both of these models were selected because of their KRAS-mutant status and their EGFR and HER3 expression. Cobimetinib was administered as an aqueous solution orally at […] once daily for 21 days. MEHD7945A was administered IV once a week until Day 21 was reached. Tumor sizes and body weights were recorded twice weekly over the course of the study. Mice were promptly euthanized when tumor volume exceeded 2000 mm3 or if body weight loss was 20% of their starting weight.
(§3) To appropriately analyze the repeated measurement of tumor volumes from the same animals over time, a mixed-modeling approach was used (Pinheiro et al. 2009). This approach addressed both repeated measurements and modest drop-out rates due to non-treatment-related termination of animals before study end. This analysis was used to determine tumor growth inhibition as a percentage of vehicle (% TGI) or time to tumor progression (TTP).
(§4) After randomization, DLD-1 tumor bearing mice were given PO gavage doses of 0 (vehicle), 3, or 10 mg/kg cobimetinib (expressed as free-base equivalents) QD for 21 days. Mice received 25 mg/kg of MEHD7945A via IV bolus injection QW for a total of three injections. In groups that received both agents, cobimetinib was administered first and immediately followed by MEHD7945A.

[3] = system: tumor cells bearing activating B-RAF mutations; assay: Growth of tumor cells bearing activating B-RAF mutations; assay type: cell-based; conditions: FIG. 5
Source text: as §1

LS180 cells = assay: TGFα-stimulated LS180 cells, immunoblot of pAKT and pERK1/2; assay type: cell-based; conditions: 10 μg/mL MEHD7945A, 0.05 μM cobimetinib or combination 1 hour before 5 nM TGFα 12 minutes
Source text: (§5) Inhibition of the RAS/RAF/MEK and the PI3K/AKT pathways were explored in vitro using MEHD7945A and cobimetinib or the combination of both agents in KRAS-mutant colorectal cell lines. Two KRAS mutant colorectal cell lines were selected to assess the potential upregulation of phosphorylated AKT (pAKT) by cobimetinib due to the inhibition of negative feedback loops. Upregulation of pAKT upon MEK inhibition has been described in several cell systems (Mirzoeva et al. 2009; Diep et al 2011; Turke et al. 2012). Moreover, we investigated if the addition of MEHD7945A to cobimetinib treatment could enhance pAKT and pERK1/2 inhibition. LS180 cells were pretreated with 10 μg/mL MEHD7945A, 0.05 μM cobimetinib, or the combination thereof for one hour before stimulation with 5 nM TGFα for twelve minutes. DLD-1 cells were pretreated with 10 μg/mL MEHD7945A, 0.025 μM cobimetinib, or the combination thereof for 1 hour before stimulation with 5 nM TGFα for 12 minutes. Cell lysates were immunoblotted to detect phosphorylation of EGFR (pEGFR1068), phosphorylation of AKT (pAKTS473), and phosphorylation of ERK1/2 (pERK1/2 T202/Y204), and total protein levels of EGFR, AKT, or ERK1/2. The results are shown in FIG. 9 (left panel=LS180 cells, right panel=DLD-1 cells) (EGFR=epidermal growth factor receptor; ERK=extracellular signal regulated kinase; p=phosphorylated; TGFα=transforming growth factor α) […]

DLD-1 cells = assay: TGFα-stimulated DLD-1 cells, immunoblot of pAKT and pERK1/2; assay type: cell-based; conditions: 10 μg/mL MEHD7945A, 0.025 μM cobimetinib or combination 1 hour before 5 nM TGFα 12 minutes
Source text: as §5

[4] = system: LS180 Colorectal Adenocarcinoma Tumor Xenografts; assay: LS180 colorectal xenograft combination study (Example 7); assay type: in vivo, mice
Experimental: as §2, §3
After randomization, LS180 tumor bearing mice were given oral (PO) gavage doses of 0 (vehicle), 3, or 10 mg/kg cobimetinib (expressed as free-base equivalents) once a day (QD) for 21 days. Mice were given 25 mg/kg of MEHD7945A via intravenous (IV) bolus injection once per week (QW) for a total of three injections. In groups that received both agents, cobimetinib was administered first and immediately followed by MEHD7945A.

[5] = system: BxPC3 Ductal Pancreatic Xenograft Tumors; assay: Pancreatic BxPC3 xenograft combination study (Example 8); assay type: in vivo, mice
Source text: as §3
as §4, with “randomization,” for “randomization, DLD-1 tumor bearing”, “(vehicle), 1,” for “(vehicle), 3,”, “or 5” for “or 10”, “Mice were given” for “Mice received”
Time to tumor progression (TTP) to twice (2×) initial tumor volume was monitored for each group following 21 days of dosing (see FIG. 13C). […] In FIG. 13 CI=confidence interval; CR=complete response (100% decrease in tumor volume); HB#8=histidine buffer; MCT=0.5% (w/v) methylcellulose, 0.2% (w/v) polysorbate 80; NA=not achieved; PR=partial response (50-99% decrease in tumor volume); TTP=time to tumor progression to twice (2×) or five times (5×) the initial tumor volume represents the group average in days.

ERK1/2 and AKT pathways = conditions: A431 and BxPC3 cells
pERK1/2 (Thr202/Tyr204) [6] = conditions: EGFR-NR6 cells, 1 hr pretreatment, 5 nM TGF-a for 10 min
Experimental: The assays were performed as follows. MCF-7 cells treated with indicated concentrations of MEHD7945A or anti-HER3 were stimulated with 0.5 nM NRG for 10 min. Cell lysates were immunoblotted to detect pHER3 (Tyr1289), pAKT (Ser473), pERK1/2 (Thr202/Tyr204), and total HER3. FIG. 2A. […] Cell lysates were subjected to immunoblotting to detect, pERK1/2 (Thr202/Tyr204), total EGFR, and phosphorylated EGFR. Since EGFR-NR6 cells only express EGFR all potential phosphorylation sites of EGFR were detected using a pTyr antibody.

pERK1/2 (Thr202/Tyr204) [7] = assay: NRG-stimulated MCF-7 cells, immunoblot of pERK1/2; assay type: cell-based; conditions: 0.5 nM NRG for 10 min
Experimental: (§6) The assays were performed as follows. […] FIG. 2A.

FaDu cells = assay: FaDu xenograft, head and neck squamous cell carcinoma model; assay type: in vivo; conditions: FaDu tumors in CB17 SCID mice, 25 mg/kg intraperitoneally weekly, 2× loading dose, four treatments
Experimental: MEHD7945A, a commercially available anti-EGFR antibody, and an anti-HER3 antibody were tested in mice with established tumors derived from Fadu cells (ATCC HTB-43, Manassas, Va.) 5×10^6 FaDu cells were inoculated subcutaneously in CB17 SCID mice. Animals with similarly sized tumors were randomized into treatment cohorts (n=9/group) as follows: Vehicle (MEHD7945A formulation buffer), anti-EGFR antibody (25 mg/kg), anti-HER3 antibody (50 mg/kg), and MEHD7945A (25 mg/kg). Treatments were administered intraperitoneally, beginning with a 2× loading dose (50 or 100 mg/kg respectively) on the day of randomization and continuing weekly for a total of four treatments.

pHER3 (Tyr1289) = target: T1, pHER3 (Tyr1289) (Homo sapiens, UniProt P21860); assay: NRG-stimulated MCF-7 cells, immunoblot of pHER3; assay type: cell-based; conditions: 0.5 nM NRG for 10 min
T1 construct: endogenous in cells; host or cells: MCF-7
Experimental: as §6

HER3-ECD = HER3-ECD (Homo sapiens, UniProt P21860); conditions: soluble competitor 0.02-20 μg/ml
EGFR [8] = target: T2, EGFR (Homo sapiens, UniProt P00533); conditions: cited from earlier work
phosphorylated EGFR = target: T3, phosphorylated EGFR (Homo sapiens, UniProt P00533); assay: TGF-a-stimulated EGFR-NR6 cells, immunoblot of phosphorylated EGFR; assay type: cell-based; conditions: 1 hr pretreatment, 5 nM TGF-a for 10 min
T3 construct: expressed in transfected cells; host or cells: EGFR-NR6
Experimental: The assays were performed as follows. […] Cell lysates were subjected to immunoblotting to detect, pERK1/2 (Thr202/Tyr204), total EGFR, and phosphorylated EGFR. Since EGFR-NR6 cells only express EGFR all potential phosphorylation sites of EGFR were detected using a pTyr antibody.

EGFR [9] = target: T2, EGFR; assay: Betacellulin- and amphiregulin-induced EGFR phosphorylation; assay type: cell-based
pAKT (Ser473) = assay: NRG-stimulated MCF-7 cells, immunoblot of pAKT; assay type: cell-based; conditions: 0.5 nM NRG for 10 min
Experimental: as §6

[10] = cobimetinib 3 mg/kg PO QD 21 days
[11] = cobimetinib 10 mg/kg PO QD 21 days
[12] = MEHD7945A 25 mg/kg IV QW, three injections

In the case of `O=C(NOCCO)c1ccc2cncn2c1Nc1ccc(I)cc1F` [GDC-0623], the “inhibiting the growth of tumor cells bearing activating Ras mutations” value [1] is reported as “more activity”, the EC50 (A375 (BRAF^V600E)) is reported as 7 nM and the EC50 (HCT115 (KRAS^G13D)) is reported as 42 nM.

With `O=C(c1ccc(F)c(F)c1Nc1ccc(I)cc1F)N1CC(O)([C@@H]2CCCCN2)C1` [GDC-0973, cobimetinib] the TGI [2, 10] was 39%, the TGI [2, 11] was 62% and the “inhibiting the growth of tumor cells bearing activating B-RAF mutations” value [3] was “more activity”. For the same molecule, the EC50 (A375 (BRAF^V600E)) was 5 nM, the “phosphorylation of AKT (pAKTS473)” value (LS180 cells) was “increased phosphorylation of AKT” and the “phosphorylation of ERK1/2 (pERK1/2 T202/Y204)” value (LS180 cells) was “partial inhibition”. The “phosphorylation of AKT (pAKTS473)” value (DLD-1 cells) was “increased phosphorylation of AKT”, the “phosphorylation of ERK1/2 (pERK1/2 T202/Y204)” value (DLD-1 cells) was “partial inhibition” and the TGI [4, 10] was 28%. The TGI [4, 11] was 63%, the “TTP 2× (time to tumor progression to twice initial tumor volume)” value ([5]; cobimetinib 1 mg/kg) was 22 days and the TGI ([5]; cobimetinib 1 mg/kg PO QD 21 days) was 88%. The “TTP 2× (time to tumor progression to twice initial tumor volume)” value ([5]; cobimetinib 5 mg/kg) was 33 days, the TGI ([5]; cobimetinib 5 mg/kg PO QD 21 days) was 109% and the EC50 (HCT115 (KRAS^G13D)) was 520 nM.

B1: MEHD7945A: dual-action antibody which comprises two identical antigen binding domains, each of which specifically binds to both HER3 and EGFR (antibody, V domains shown)
VH: EVQLVESGGGLVQPGGSLRLSCAASGFTLSGDWIHWVRQAPGKGLEWVGEISAAGGYTDYADSVKGRFTISADTSKNTAYLQMNSLRAEDTAVYYCARESRVSFEAAMDYWGQGTLVTVSS
VL: DIQMTQSPSSLSASVGDRVTITCRASQNIATDVAWYQQKPGKAPKLLIYSASFLYSGVPSRFSGSGSGTDFTLTISSLQPEDFATYYCQQSEPEPYTFGQGTKVEIKR
For B1, the “inhibition of ERK1/2 and AKT pathways” value (ERK1/2 and AKT pathways) was “as potently as the combination of anti-HER3 and cetuximab”, the “IC50, phosphorylation of ERK1/2” value (pERK1/2 (Thr202/Tyr204) [6]) was 0.16 µg/mL and the “IC50, phosphorylation of ERK1/2” value (pERK1/2 (Thr202/Tyr204) [7]) was 1.13 µg/mL. For the same molecule, the TGI [2, 12] was 62%, the “inhibition of tumor growth” value (FaDu cells) was “more effective in inhibiting tumor growth than either an anti-EGFR specific or an anti-HER3 specific antibody” and the “IC50, phosphorylation of HER3” value (pHER3 (Tyr1289)) was 0.05 µg/mL. For the same molecule, the “binding to immobilized HER3-ECD with increasing amounts of EGFR-ECD” value (HER3-ECD) was “reduced in a dose-dependent manner”, the TGI [4, 12] was 44% and the Kd (EGFR [8]) was about 1.9 nM. The “IC50, phosphorylation of EGFR” value (phosphorylated EGFR) was 0.03 µg/mL, the “TTP 2× (time to tumor progression to twice initial tumor volume)” value ([5]; MEHD7945A 25 mg/kg) was 39.5 days and the TGI [5, 12] was 107%. For the same molecule, the “betacellulin- and amphiregulin-induced EGFR phosphorylation” value (EGFR [9]) was “inhibited” and the “IC50, phosphorylation of AKT” value (pAKT (Ser473)) was 0.19 µg/mL.
